Patent publication US20260216294A1, “BETA 2-ADRENERGIC RECEPTOR AGONISTS FOR TREATMENT OR PREVENTION OF MUSCLE WASTING” (ATROGI AB, priority 2023, published 2026)

Assays:
[1] = system: L6-myotubes; test: Glucose uptake in differentiated L6-myotubes (Biological Example 2); format: cell-based; conditions: for Emax at 10 µM: read-out: Biological example 2 (GU)
Outline: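 Differentiated L6 myotubes were serum-starved overnight in 0.5% fatty-acid-free BSA and then stimulated with compound or isoprenaline at 1×10^−5 M final. After 1 h 40 min cells were washed and re-dosed in glucose-free medium. Twenty minutes later, uptake of 50 nM ^3H-2-deoxyglucose over 10 min was measured by scintillation counting of NaOH lysates.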

[2] = system: L6-myotubes; test: Measurement of intracellular cAMP levels in differentiated L6-myotubes (Biological Example 3); format: cell-based; conditions: for Emax at 10 µM: 0.25 h
Outline: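 Serum-starved differentiated L6 myotubes stimulated 15 min with test compound at 1×10^−5 M final (isoprenaline as reference) in HBSS with 1% BSA, 5 mM HEPES, 1 mM IBMX, pH 7.4. Cells EtOH-extracted, lysed, and intracellular cAMP measured by AlphaScreen.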

[3] = glucose uptake in differentiated L6-myotubes, compound at 10 μM, activity relative to isoproterenol at 10 μM
[4] = intracellular cAMP in differentiated L6-myotubes, compound at 10 μM, activity relative to isoproterenol at 10 μM
[5] = glucose uptake, compound at 10 μM relative to isoproterenol at 10 μM
[6] = intracellular cAMP, compound at 10 μM relative to isoproterenol at 10 μM

SMILES: CC(C)(C[C@H]1CC[C@H](NC(=O)C(F)(F)F)CC1)NC[C@H](O)c1cccc(F)c1 [Compound 433]
- Biological example 2 (GU) [1, 3]: +++ (If a compound at 10 μM shows activity of more than 75% of that of isoproterenol at 10 μM, the activity is denoted with +++)
- Biological example 3 (CAMP) [2, 4]: + (if it is between 50 and 25% it is denoted with +)

SMILES: CC1(C)CC[C@H]([C@@H](O)c2cc(F)c(N)c(F)c2)N1 [Compound 236]
- Emax at 10 µM [1, 3]: > 75%
- Emax at 10 µM [2, 4]: 25 to 50%

SMILES: COc1ccc(C[C@@]2(C)CC[C@H]([C@@H](O)c3cccc(F)c3)N2)cc1 [Compound 365, (S)-{(2R,5R)-5-[(p-methoxyphenyl)methyl]-5-methyl-2-pyrrolidinyl}(m-fluorophenyl)methanol]
- Emax at 10 µM [1, 3]: > 75%
- Emax at 10 µM [2, 4]: < 25%

SMILES: CC12CCC([C@H](O)c3ccccc3Cl)(CC1)N2 [Compound 195, (R)-(o-chlorophenyl)(4-methyl-7-azabicyclo[[2.2.1]]hept-1-yl)methanol]
- Emax at 10 µM [1, 5]: > 75%
- Emax at 10 µM [2, 6]: < 25%

SMILES: OC(CNCC1CCCCC1)c1ccccc1 (centres unmarked) [Compound 7, 2-[(cyclohexylmethyl)amino]-1-phenyl-1-ethanol]
- Emax at 10 µM [1, 5]: 25 to 50%
- Emax at 10 µM [2, 6]: < 25%

SMILES: CO[C@H]1CCC[C@@H](C(C)(C)NC[C@H](O)c2cccc(F)c2)C1 [Compound 256, (R)-2-{1-[(1R,3S)-3-methoxycyclohexyl]-1-methylethylamino}-1-(m-fluorophenyl)-1-ethanol]
- Emax at 10 µM [1, 3]: > 75%
- Emax at 10 µM [2, 4]: 25 to 50%

SMILES: CC(C)(C)CNC[C@H](O)c1cccc(F)c1 [Compound 117, (R)-1-(m-fluorophenyl)-2-(neopentylamino)-1-ethanol]
- Emax at 10 µM [1, 5]: 25 to 50%
- Emax at 10 µM [2, 6]: < 25%

SMILES: CCCC(C)NCC(O)c1cccc(O)c1 (centres unmarked) [Compound 14, 1-(m-hydroxyphenyl)-2-(1-methylbutylamino)-1-ethanol]
- Emax at 10 µM [1, 5]: > 75%
- Emax at 10 µM [2, 6]: < 25%

SMILES: CC12CC(C1)[C@H]([C@@H](O)c1ccccc1F)N2 [Compound 212]
- Emax at 10 µM [1, 3]: > 75%
- Emax at 10 µM [2, 4]: < 25%

SMILES: CC1(C)CC[C@H]([C@@H](O)c2cccc(F)c2)N1 [Compound 109, (S)-[(R)-5,5-dimethyl-2-pyrrolidinyl](m-fluorophenyl)methanol]
- Emax at 10 µM [1, 5]: 25 to 50%
- Emax at 10 µM [2, 6]: < 25%

SMILES: CC(C)(C[C@H]1CC[C@@H](N)CC1)NC[C@H](O)c1cccc(F)c1 [Compound 456]
- Emax at 10 µM [1, 3]: > 75%
- Emax at 10 µM [2, 4]: < 25%

SMILES: O[C@@H](CNC[C@H]1CC[C@@H](O)CC1)c1cccc(F)c1 [Compound 268, (R)-1-(m-fluorophenyl)-2-({[(1s,4S)-4-hydroxycyclohexyl]methyl}amino)-1-ethanol]
- Emax at 10 µM [1, 3]: 25 to 50%
- Emax at 10 µM [2, 4]: < 25%

SMILES: CO[C@H]1CC[C@H](C[C@@H]2CC[C@H]([C@H](O)c3cccc(F)c3)N2)CC1 [Compound 326, (R)-[(2R,5S)-5-{[(1r,4S)-4-methoxycyclohexyl]methyl}-2-pyrrolidinyl] (m-fluorophenyl)methanol]
- Emax at 10 µM [1, 3]: > 75%
- Emax at 10 µM [2, 4]: < 25%

SMILES: CC(C)(C[C@H]1CC[C@H](O)CC1)NC[C@H](O)c1cncc(F)c1 [Compound 299, (R)-2-{1,1-dimethyl-2-[(1r,4R)-4-hydroxycyclohexyl]ethylamino}-1-(5-fluoro-3-pyridyl)-1-ethanol]
- Emax at 10 µM [1, 3]: 50 to 75%
- Emax at 10 µM [2, 4]: < 25%

SMILES: CCCCNCC(O)c1cccc(O)c1 (centres unmarked) [Compound 15, 2-(butylamino)-1-(m-hydroxyphenyl)-1-ethanol]
- Emax at 10 µM [1, 5]: 50 to 75%
- Emax at 10 µM [2, 6]: < 25%

SMILES: CCC[C@H]1CCC[C@@H]([C@@H](O)c2cccc(O)c2)N1 [Compound 121]
- Emax at 10 µM [1, 5]: > 75%
- Emax at 10 µM [2, 6]: < 25%

SMILES: CO[C@H]1CC[C@@H](CCCNC[C@H](O)c2cncc(F)c2)CC1 [Compound 260, (R)-1-(5-fluoro-3-pyridyl)-2-{3-[(1s,4R)-4-methoxycyclohexyl]propylamino}-1-ethanol]
- Emax at 10 µM [1, 3]: > 75%
- Emax at 10 µM [2, 4]: < 25%

SMILES: CO[C@H]1CC[C@H](CCC(C)(C)NC[C@H](O)c2cncc(F)c2)CC1 [Compound 267, (R)-2-{1,1-dimethyl-3-[(1r,4S)-4-methoxycyclohexyl]propylamino}-1-(5-fluoro-3-pyridyl)-1-ethanol]
- Emax at 10 µM [1, 3]: 25 to 50%
- Emax at 10 µM [2, 4]: < 25%

SMILES: CCCCNCC(O)c1ccc(F)c(N)c1F (centres unmarked) [Compound 43, 1-(3-amino-2,4-difluorophenyl)-2-(butylamino)-1-ethanol]
- Emax at 10 µM [1, 5]: > 75%
- Emax at 10 µM [2, 6]: < 25%

SMILES: CCCC(C)NC(C)C(O)c1ccc(O)cc1 (centres unmarked) [Compound 13, 1-(p-hydroxyphenyl)-2-(1-methylbutylamino)-1-propanol]
- Emax at 10 µM [1, 5]: 50 to 75%
- Emax at 10 µM [2, 6]: < 25%

SMILES: O[C@@H](c1cncc(F)c1)[C@H]1CC[C@@H](Cc2ccc(Cl)cc2)N1 [Compound 403, (S)-{(2R,5S)-5-[(p-chlorophenyl)methyl]-2-pyrrolidinyl}(5-fluoro-3-pyridyl)methanol]
- Emax at 10 µM [1, 3]: 50 to 75%
- Emax at 10 µM [2, 4]: < 25%

SMILES: CC12CC(C1)[C@@H]([C@@H](O)c1cncc(F)c1)N2 [Compound 221, (S)-{(S)-1-methyl-2-azabicyclo[[2.1.1]]hex-3-yl}(5-fluoro-3-pyridyl)methanol]
- Emax at 10 µM [1, 3]: 50 to 75%
- Emax at 10 µM [2, 4]: < 25%

SMILES: CC12CCC([C@@H](O)c3cccc(F)c3)(CC1)N2 [Compound 178, (S)-(m-fluorophenyl)(4-methyl-7-azabicyclo[[2.2.1]]hept-1-yl)methanol]
- Emax at 10 µM [1, 5]: 25 to 50%
- Emax at 10 µM [2, 6]: < 25%

SMILES: CCC[C@@H]1CCC[C@H]([C@H](O)c2ccc(F)cc2)N1 [Compound 94]
- Emax at 10 µM [1, 5]: 50 to 75%
- Emax at 10 µM [2, 6]: < 25%

SMILES: CCC[C@@H]1CCC[C@H]([C@H](O)c2cccc(F)c2)N1 [Compound 59, (R)-[(2R,6R)-6-propyl-2-piperidyl](m-fluorophenyl)methanol]
- Emax at 10 µM [1, 5]: 25 to 50%
- Emax at 10 µM [2, 6]: < 25%

SMILES: O[C@@H](c1cccc(F)c1)[C@H]1CC[C@H](Cc2ccc(Cl)cc2)N1 [Compound 394, (S)-{(2R,5R)-5-[(p-chlorophenyl)methyl]-2-pyrrolidinyl}(m-fluorophenyl)methanol]
- Emax at 10 µM [1, 3]: 50 to 75%
- Emax at 10 µM [2, 4]: < 25%

SMILES: O[C@H](c1cncc(F)c1)C12CCC(CCCc3ccccc3)(CC1)N2 [Compound 532, (R)-(5-fluoro-3-pyridyl){4-(3-phenylpropyl)-7-azabicyclo[[2.2.1]]hept-1-yl}methanol]
- Emax at 10 µM [1, 3]: 50 to 75%
- Emax at 10 µM [2, 4]: 25 to 50%

SMILES: CC12CCC([C@@H](O)c3ccncc3F)(CC1)N2 [Compound 253, (S)-(3-fluoro-4-pyridyl)(4-methyl-7-azabicyclo[[2.2.1]]hept-1-yl)methanol]
- Emax at 10 µM [1, 3]: < 25%
- Emax at 10 µM [2, 4]: < 25%

SMILES: CO[C@H]1CC[C@@H](CCCNC[C@H](O)c2cccc(F)c2)CC1 [Compound 258, (R)-1-(m-fluorophenyl)-2-{3-[(1s,4R)-4-methoxycyclohexyl]propylamino}-1-ethanol]
- Emax at 10 µM [1, 3]: > 75%
- Emax at 10 µM [2, 4]: 50 to 75%

SMILES: CC(C)(C[C@H]1CC[C@@H](C#N)CC1)NC[C@H](O)c1cccc(F)c1 [Compound 399, (1S,4s)-4-{2-[(R)-2-(m-fluorophenyl)-2-hydroxyethylamino]-2-methylpropyl} cyclohexanecarbonitrile]
- Emax at 10 µM [1, 3]: > 75%
- Emax at 10 µM [2, 4]: 25 to 50%

SMILES: CCC[C@H]1CCCC[C@@H]([C@@H](O)c2cncc(F)c2)N1 [Compound 235, (S)-[(2S,7S)-7-propyl-2-azepanyl](5-fluoro-3-pyridyl)methanol]
- Emax at 10 µM [1, 3]: < 25%
- Emax at 10 µM [2, 4]: < 25%

SMILES: CC(C)(C[C@H]1CC[C@H](NS(C)(=O)=O)CC1)NC[C@H](O)c1cncc(F)c1 [Compound 360, (R)-2-{1,1-dimethyl-2-[(1r,4R)-4-(mesylamino)cyclohexyl]ethylamino}-1-(5-fluoro-3-pyridyl)-1-ethanol]
- Emax at 10 µM [1, 3]: > 75%
- Emax at 10 µM [2, 4]: < 25%

SMILES: CCCCNC(C)C(O)c1ccc(O)cc1 (centres unmarked) [Compound 12, 2-(butylamino)-1-(p-hydroxyphenyl)-1-propanol]
- Emax at 10 µM [1, 5]: 50 to 75%
- Emax at 10 µM [2, 6]: < 25%

SMILES: CS(=O)(=O)N(Cc1ccccc1)[C@H]1CC[C@H](C[C@@H]2CC[C@H]([C@H](O)c3cccc(F)c3)N2)CC1 [Compound 502]
- Emax at 10 µM [1, 3]: < 25%
- Emax at 10 µM [2, 4]: < 25%

SMILES: O=C(N[C@H]1CC[C@@H](CNC[C@H](O)c2cncc(F)c2)CC1)c1ccccc1 [Compound 318]
- Emax at 10 µM [1, 3]: 50 to 75%
- Emax at 10 µM [2, 4]: < 25%

SMILES: CC(C)(CC[C@H]1CC[C@@H](C(=O)O)CC1)NC[C@H](O)c1cccc(F)c1 [Compound 352, (1S,4s)-4-{3-[(R)-2-(m-fluorophenyl)-2-hydroxyethylamino]-3-methylbutyl} cyclohexanecarboxylic acid]
- Emax at 10 µM [1, 3]: 25 to 50%
- Emax at 10 µM [2, 4]: < 25%

SMILES: O[C@@H](c1cccc(F)c1)[C@H]1CCC2(CC2)N1 [Compound 171]
- Emax at 10 µM [1, 5]: 25 to 50%
- Emax at 10 µM [2, 6]: < 25%

SMILES: CS(=O)(=O)N(Cc1ccccc1)c1ccc(CC23CCC([C@H](O)c4cccc(F)c4)(CC2)N3)cc1 [Compound 473]
- Emax at 10 µM [1, 3]: 25 to 50%
- Emax at 10 µM [2, 4]: < 25%

SMILES: CC(=O)N[C@H]1CC[C@@H](CNC[C@H](O)c2cncc(F)c2)CC1 [Compound 310]
- Emax at 10 µM [1, 3]: 25 to 50%
- Emax at 10 µM [2, 4]: < 25%

SMILES: O[C@H](c1cccc(F)c1)C12CCC(COCc3ccc(F)cc3)(CC1)N2 [Compound 439, (R)-(m-fluorophenyl)(4-{[(p-fluorophenyl)methoxy]methyl}-7-azabicyclo[[2.2.1]]hept-1-yl)methanol]
- Emax at 10 µM [1, 3]: > 75%
- Emax at 10 µM [2, 4]: 25 to 50%
